Measurements taken from article PMC2829539, “Unchanged triclabendazole kinetics after co-administration with ivermectin and methimazole: failure of its therapeutic activity against triclabendazole-resistant liver flukes” (BMC Veterinary Research, 2010).
“And” between values parts separate entries of the source, which are not always exact repeats. Equal values may be shown once.

What was measured:
[1] = parameters: method as in Alvarez et al., 2008; details: ref Alvarez et al., 2008, cited from earlier work
[2] = tested on: TCBZ-resistant F. hepatica (Sligo isolate); test: Clinical efficacy study: fluke counts 15 days after treatment; type: in vivo, Fasciola hepatica
Method: (§1) Animals were each orally infected with eighty (80) metacercariae of a TCBZ-resistant F. hepatica isolate, named Sligo. For details of the history of the Sligo isolate, see previous works. Sixteen weeks after infection, animals were randomly distributed into three experimental groups (n = 4 each): Group I, which represented the untreated control group; Group II, in which animals were treated with TCBZ (Fasinex®, Novartis) by the i.r. route at 10 mg/kg dose rate; and Group III, in which animals were simultaneously treated with TCBZ (Fasinex®, Novartis) by the i.r. route (10 mg/kg) and IVM (Ivosint®, Biogénesis) by the s.c. route (0.2 mg/kg, internal face of the thigh). Additionally, animals in Group III were treated by the intramuscular (i.m.) route (Semitendinosus muscle) with MTZ (2.5% aqueous solution) at a dose rate of 1.5 mg/kg. MTZ administration was performed 30 min after TCBZ/IVM treatment. Blood samples (5 ml) were taken by jugular venipunctures into heparinised Vacutainers® tubes (Becton Dickinson, USA) before administration (time 0) and at 1, 3, 6, 9, 12, 18, 24, 30, 36, 48, 72, 96, 120 and 144 h post-treatment. Plasma was separated by centrifugation at 3000 g for 15 min, placed into plastic tubes and frozen at -20°C until analyzed by high performance liquid chromatography (HPLC).
Fifteen days after treatment all animals were stunned and exsanguinated immediately. Adult F. hepatica specimens were recovered from the common bile ducts and the gall bladder of each sheep and counted according to the World Association for the Advancement of Veterinary Parasitology (W.A.A.V.P) guidelines. The efficacy of each anthelmintic treatment was determined by the comparison of F. hepatica burdens in treated versus untreated animals. The following equation expresses the percent efficacy (% E) of a drug treatment against F. hepatica (F.h.) in a single treatment group (T) when compared with an untreated control (C). [drawing 1]
The geometric mean was used as it most accurately represents the distribution of parasite populations within each group.

[3] = Plasma disposition kinetics of TCBZ metabolites in F. hepatica-infected sheep (HPLC, non-compartmental analysis); type: in vivo; details: for AUC0-∞ / AUC0-t / Cmax / MRT (mean residence time) / T1/2el (elimination half-life) / T1/2for (formation half life) / Tmax: in vivo, 10 mg/kg; for Time metabolites were recovered in plasma post-treatment: sheep plasma, both treated groups, last sampling time 144 h; for AUC0-t / Cmax / MRT (mean residence time) / T1/2el (elimination half-life) / T1/2for (formation half life) / Tmax: sheep
Method: as §1
TCBZ and its metabolites were extracted from plasma as previously described. Samples (1 ml) were spiked with 10 μl of oxibendazole (OBZ) (100 μg/ml), used as internal standard. After addition of 2 ml of acetonitrile, samples were shaken for 20 min (multivortex) and then centrifuged at 2500 g for 15 min. The supernatants were recovered and evaporated to dryness in a vacuum concentrator (Speed-Vac®, Savant, Los Angeles, USA). The dry extracts were reconstituted in 300 μl of mobile phase and an aliquot of 50 μl was injected into the HPLC system.
Experimental and fortified plasma samples were analysed by HPLC to determine the concentration of TCBZ and its metabolites following the methodology previously described. The elution from the stationary phase (Selectosil C18 column, 5 μm, 250 × 4.6 mm, Phenomenex®, CA, USA) was carried out at a flow rate of 1.2 ml/min, using a mixture of acetonitrile/ammonium acetate (0.025 M, pH 6.6) as mobile phase. Fifty μl of each previously extracted sample were injected into a Shimadzu 10 A HPLC System (Kyoto, Japan), using a gradient pump, UV detector set at 300 nm, an autosampler and a controller (Shimadzu Class LC10, Kyoto, Japan). Analytes were identified by the retention times of pure reference standards. Chromatographic retention times were: 4.09 (OBZ), 5.91 (TCBZ.SO), 7.95 (TCBZ.SO2) and 10.36 (TCBZ) min. […] The absolute recovery of drug analytes from plasma was calculated by comparison of the peak areas from spiked plasma samples with the peak areas resulting from direct injections of standards in mobile phase. Mean absolute recoveries and coefficient of variations (CV) within the concentration range between 0.1 and 25 μg/ml (triplicate determinations) were 89.2% (CV: 6.74%) (TCBZ), 87.1% (CV: 6.03%) (TCBZ.SO) and 90.1% (CV: 4.75%) (TCBZ.SO2). Precision (intra- and inter-assay) was determined by analysing replicates of fortified plasma samples (n = 5) with each compound at three different concentrations (0.1, 5 and 10 μg/ml). CV ranged from 2.54 to 14.6%. The limit of quantification (LOQ) was defined as the lowest measured concentration with a CV <20% and accuracy of ±20% and an absolute recovery ≥70%. The LOQ defined for the three molecules assayed was 0.1 μg/ml. Values below LOQ were not included in the pharmacokinetic analysis.
The concentration versus time curves for TCBZ metabolites in plasma for individual animals were fitted with the PKSolutions™ computer program/programme (Summit Research Service, Ashland, USA). Pharmacokinetic analysis of the experimental data was performed by non-compartmental analysis. […]

| Compound | Initial plasma concentration ([1]; after i.v. administration) [ng/mL] | Peak plasma concentration ([1]; after s.c. administration at the same dose rate) [ng/mL] | Individual fluke counts ([2]; sheep infected with 80 metacercariae, treated 16 weeks after infection, counted 15 days post-treatment, one value per animal (n = 4)) | Arithmetic mean fluke count ([2]; sheep, 15 days post-treatment, n = 4, untreated control 13.25) | Clinical efficacy ([2]; sheep, 15 days post-treatment, versus untreated control, calculated using geometric means) [%] | AUC0-∞ [3] [µg·h/mL] | Time metabolites were recovered in plasma post-treatment [3] | AUC0-t [3] [µg·h/mL] | Cmax [3] [ng/mL] | MRT (mean residence time) [3] [h] | T1/2el (elimination half-life) [3] [h] | T1/2for (formation half life) [3] [h] | Tmax [3] [h] | Share of the total analytes found in sheep plasma ([3]; after i.r. administration of TCBZ) [%] |
| --- | --- | --- | --- | --- | --- | --- | --- | --- | --- | --- | --- | --- | --- | --- |
| CC[C@H](C)[C@H]1O[C@]2(CC[C@@H]1C)C[C@@H]1C[C@@H](C/C=C(\C)[C@@H](O[C@H]3C[C@H](OC)[C@@H](O[C@H]4C[C@H](OC)[C@@H](O)[C@H](C)O4)[C@H](C)O3)[C@@H](C)/C=C/C=C3\CO[C@@H]4[C@H](O)C(C)=C[C@@H](C(=O)O1)[C@]34O)O2 [IVM, ivermectin] | 281.2 ± 32.6 | 21.3 ± 13.3 |  |  |  |  |  |  |  |  |  |  |  |  |
| CSc1nc2cc(Cl)c(Oc3cccc(Cl)c3Cl)cc2[nH]1 [TCBZ alone, 6-chloro-5(2-3 dichlorophenoxy)-2-methyl thio-benzimidazole] |  |  | 2 and 12 and 8 and 5 | 6.75 | 56 |  |  |  |  |  |  |  |  |  |
| CS(=O)(=O)c1nc2cc(Oc3cccc(Cl)c3Cl)c(Cl)cc2[nH]1 [TCBZ.SO2, triclabendazole sulphone] |  |  |  |  |  | 917.9 ± 270.6 | up to 144 h | 868.2 ± 217.6 | 13500 ± 1680 | 61.3 ± 17.2 | 26.8 ± 10.9 | 12.3 ± 2.90 | 39.0 ± 6.00 |  |
| C[S+]([O-])c1nc2cc(Oc3cccc(Cl)c3Cl)c(Cl)cc2[nH]1 (stereo not shown) [TCBZ.SO, triclabendazole sulphoxide] |  |  |  |  |  | 661.5 ± 148.5 | up to 144 h | 653.9 ± 140.6 | 14000 ± 850 | 38.8 ± 10.5 | 17.5 ± 8.45 | 6.85 ± 2.18 | 22.5 ± 7.55 | 42 |
